Measurements published in ChEMBL document CHEMBL1201862, “PubChem BioAssay data set” (2004).
Activity calls are given as the source filed them.

Legend:
HEK293 [1] = experiment: membrane integrity loss in HEK cells – cell-based, fluorescence, cytotoxicity control for IDE activator project, dose response (AID 588440); format: functional; conditions: Homo sapiens;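 note: cytotoxicity by LDH release measuring loss of membrane integrity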
Insulin-degrading enzyme [2] = biological target: T1, Insulin-degrading enzyme (Homo sapiens, UniProt P14735); experiment: recombinant IDE activation, cell-free – biochemical, fluorescence polarization, counter-screen for IDE activator project, dose response (AID 588681)
T1 sequence (P14735 whole entry): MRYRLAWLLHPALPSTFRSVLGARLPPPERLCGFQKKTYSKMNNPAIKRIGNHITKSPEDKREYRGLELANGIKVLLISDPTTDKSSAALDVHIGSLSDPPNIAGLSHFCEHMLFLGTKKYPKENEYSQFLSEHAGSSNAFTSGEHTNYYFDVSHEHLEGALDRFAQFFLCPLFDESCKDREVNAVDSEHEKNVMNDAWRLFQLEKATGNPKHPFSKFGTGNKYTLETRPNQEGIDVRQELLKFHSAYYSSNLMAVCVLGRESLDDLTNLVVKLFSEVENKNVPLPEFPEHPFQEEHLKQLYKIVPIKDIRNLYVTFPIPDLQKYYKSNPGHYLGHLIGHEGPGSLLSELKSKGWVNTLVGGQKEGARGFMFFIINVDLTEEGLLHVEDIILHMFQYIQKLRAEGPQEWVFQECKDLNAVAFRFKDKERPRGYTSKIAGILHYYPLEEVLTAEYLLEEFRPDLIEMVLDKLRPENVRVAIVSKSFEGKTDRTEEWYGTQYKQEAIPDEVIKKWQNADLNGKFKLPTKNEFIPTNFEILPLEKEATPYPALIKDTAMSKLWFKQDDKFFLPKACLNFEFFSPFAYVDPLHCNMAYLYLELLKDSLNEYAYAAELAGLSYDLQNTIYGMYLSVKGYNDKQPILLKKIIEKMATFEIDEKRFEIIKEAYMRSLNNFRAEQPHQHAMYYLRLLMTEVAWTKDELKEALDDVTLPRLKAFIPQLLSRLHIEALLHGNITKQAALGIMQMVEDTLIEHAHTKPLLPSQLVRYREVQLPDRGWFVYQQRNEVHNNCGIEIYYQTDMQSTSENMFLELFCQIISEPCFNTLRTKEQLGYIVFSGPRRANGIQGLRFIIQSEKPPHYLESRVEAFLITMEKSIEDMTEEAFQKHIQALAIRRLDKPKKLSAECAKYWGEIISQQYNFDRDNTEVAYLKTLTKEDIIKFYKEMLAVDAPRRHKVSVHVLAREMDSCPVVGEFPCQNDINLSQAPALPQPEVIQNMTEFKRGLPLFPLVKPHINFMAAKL

Insulin-degrading enzyme [3] = biological target: T1, Insulin-degrading enzyme; experiment: cellular IDE activation of Abeta substrate cleavage – fluorescence polarization, HEK cells, dose response (AID 588439); format: functional, cell-based
HEK293 [4] = experiment: optical interference in Abeta FP readout, dose response, artefact control for IDE activator project, biochemical, fluorescence polarization (AID 588442); format: functional, cell-based; conditions: Homo sapiens
[5] = biological target: T2, Sentrin-specific protease 7 (Homo sapiens, UniProt Q9BQF6); experiment: inhibition of human SENP7 cleavage activity – biochemical, luminescence, SAR follow-up (AID 504497); format: functional
T2 sequence (Q9BQF6 whole entry): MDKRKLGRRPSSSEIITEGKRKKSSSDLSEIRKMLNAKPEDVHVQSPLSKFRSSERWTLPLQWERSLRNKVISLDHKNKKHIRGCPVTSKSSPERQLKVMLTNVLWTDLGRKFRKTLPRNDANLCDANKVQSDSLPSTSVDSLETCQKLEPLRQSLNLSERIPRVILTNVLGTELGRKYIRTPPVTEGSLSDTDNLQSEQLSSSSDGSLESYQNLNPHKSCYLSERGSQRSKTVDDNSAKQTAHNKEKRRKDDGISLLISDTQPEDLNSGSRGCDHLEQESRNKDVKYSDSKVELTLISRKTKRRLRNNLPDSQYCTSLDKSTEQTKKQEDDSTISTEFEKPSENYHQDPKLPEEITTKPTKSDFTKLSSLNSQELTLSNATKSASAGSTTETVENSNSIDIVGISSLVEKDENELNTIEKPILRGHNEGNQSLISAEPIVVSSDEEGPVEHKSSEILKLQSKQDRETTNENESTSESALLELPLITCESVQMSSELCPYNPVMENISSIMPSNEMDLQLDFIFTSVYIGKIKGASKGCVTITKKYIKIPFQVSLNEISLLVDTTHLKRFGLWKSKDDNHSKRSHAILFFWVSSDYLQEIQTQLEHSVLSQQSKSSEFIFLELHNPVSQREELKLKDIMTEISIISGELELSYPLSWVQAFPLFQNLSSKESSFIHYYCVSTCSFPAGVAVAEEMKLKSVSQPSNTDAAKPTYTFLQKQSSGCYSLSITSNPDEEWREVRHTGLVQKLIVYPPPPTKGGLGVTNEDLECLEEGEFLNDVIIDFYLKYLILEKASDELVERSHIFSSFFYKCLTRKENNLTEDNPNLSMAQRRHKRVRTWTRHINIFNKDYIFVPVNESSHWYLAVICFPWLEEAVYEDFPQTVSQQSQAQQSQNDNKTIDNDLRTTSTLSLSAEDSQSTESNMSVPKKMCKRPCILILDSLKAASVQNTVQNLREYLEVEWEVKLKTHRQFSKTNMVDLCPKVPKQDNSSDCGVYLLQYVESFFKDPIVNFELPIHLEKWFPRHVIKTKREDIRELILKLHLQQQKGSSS

Caspase-3 = biological target: T3, Caspase-3 (Homo sapiens, UniProt P42574); experiment: SAR Analysis of small molecule inhibitors of Sentrin-specific proteases (SENPs) using a Caspase-3 Selectivity assay. [Related pubchem assays (depositor defined):AID2540, AID2599, AID434973, AID489001]; format: functional
T3 sequence (P42574 whole entry): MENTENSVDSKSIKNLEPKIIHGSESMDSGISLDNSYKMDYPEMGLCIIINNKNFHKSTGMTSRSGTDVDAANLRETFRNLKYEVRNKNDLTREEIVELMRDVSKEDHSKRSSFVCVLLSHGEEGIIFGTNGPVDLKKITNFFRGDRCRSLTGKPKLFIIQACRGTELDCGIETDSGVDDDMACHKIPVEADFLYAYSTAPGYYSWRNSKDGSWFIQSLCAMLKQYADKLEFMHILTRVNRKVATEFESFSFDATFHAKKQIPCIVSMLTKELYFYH

[6] = biological target: T4, Sentrin-specific protease 8 (Homo sapiens, UniProt Q96LD8); experiment: inhibition of human SENP8 cleavage activity – biochemical, luminescence, SAR follow-up (AID 504501); format: functional
T4 sequence (Q96LD8 whole entry): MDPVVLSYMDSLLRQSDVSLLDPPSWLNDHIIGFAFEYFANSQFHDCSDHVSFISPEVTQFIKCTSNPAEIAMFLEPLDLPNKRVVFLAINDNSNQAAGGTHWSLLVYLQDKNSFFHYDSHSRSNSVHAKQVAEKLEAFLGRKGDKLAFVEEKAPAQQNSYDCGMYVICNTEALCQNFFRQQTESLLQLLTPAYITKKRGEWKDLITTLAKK

[7] = biological target: T5, Sentrin-specific protease 6 (Homo sapiens, UniProt Q9GZR1); experiment: SAR Analysis of small molecule inhibitors of Sentrin-specific protease 6 (SENP6) using a Luminescent assay. [Related pubchem assays (depositor defined):AID2582, AID2599]; format: functional
T5 sequence (Q9GZR1 whole entry): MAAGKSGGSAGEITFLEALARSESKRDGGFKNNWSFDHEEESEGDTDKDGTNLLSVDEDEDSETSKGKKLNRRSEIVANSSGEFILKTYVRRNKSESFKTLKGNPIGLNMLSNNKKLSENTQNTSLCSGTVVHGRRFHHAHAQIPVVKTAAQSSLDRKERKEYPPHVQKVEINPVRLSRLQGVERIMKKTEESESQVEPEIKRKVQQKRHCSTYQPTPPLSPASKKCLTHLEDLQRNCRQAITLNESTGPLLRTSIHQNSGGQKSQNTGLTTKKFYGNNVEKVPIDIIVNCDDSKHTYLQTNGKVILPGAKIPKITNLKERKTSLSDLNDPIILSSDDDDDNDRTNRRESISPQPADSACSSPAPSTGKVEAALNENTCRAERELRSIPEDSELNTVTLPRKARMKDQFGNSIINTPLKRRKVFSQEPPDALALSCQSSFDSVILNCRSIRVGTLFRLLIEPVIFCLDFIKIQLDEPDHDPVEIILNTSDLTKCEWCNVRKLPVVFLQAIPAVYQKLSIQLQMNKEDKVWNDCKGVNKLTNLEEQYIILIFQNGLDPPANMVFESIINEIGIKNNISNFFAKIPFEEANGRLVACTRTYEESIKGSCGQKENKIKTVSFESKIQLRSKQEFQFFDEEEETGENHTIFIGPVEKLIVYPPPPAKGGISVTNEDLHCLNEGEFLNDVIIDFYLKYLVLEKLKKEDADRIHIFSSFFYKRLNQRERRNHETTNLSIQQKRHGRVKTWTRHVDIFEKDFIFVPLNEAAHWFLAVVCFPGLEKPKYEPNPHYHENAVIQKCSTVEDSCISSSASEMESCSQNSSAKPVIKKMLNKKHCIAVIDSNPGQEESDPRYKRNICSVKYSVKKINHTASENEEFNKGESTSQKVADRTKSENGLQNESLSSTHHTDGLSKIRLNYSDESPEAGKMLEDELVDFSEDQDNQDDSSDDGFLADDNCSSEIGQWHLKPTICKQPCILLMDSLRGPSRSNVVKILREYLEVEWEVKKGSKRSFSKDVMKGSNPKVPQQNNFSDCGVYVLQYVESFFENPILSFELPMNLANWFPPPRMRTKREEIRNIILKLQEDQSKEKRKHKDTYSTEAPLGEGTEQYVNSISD

CCOC(=O)c1cccc(P(C)(C)=O)c1
inactive: IC50 (HEK293 [1]) > 89.1 µM | EC50 (Insulin-degrading enzyme [2]) > 54.7 µM | EC50 (Insulin-degrading enzyme [3]) > 54.7 µM | EC50 (HEK293 [4]) > 54.7 µM

NS(=O)(=O)c1ccc(CCNC(=O)c2sc3cc(Cl)ccc3c2Cl)cc1
inactive: IC50 [5] > 99 µM | IC50 (Caspase-3) > 99 µM | IC50 [6] > 99 µM | IC50 [7] > 99 µM
